Test systems include CHRF288-11; CMK; CMS; M07e; ML-2; MOLM-13; MV4-11; U937.
Parameters in all cases: species or system AML cell lines (8); Primary HTS, single concentration about 10 uM, Cell Titer Glo viability; log10 luminescence, per cent inhibition relative to cycloheximide control
Conditions in all cases: 72 h, relative to cycloheximide control, log10 luminescence, inhibitor

This is an account of results in PMC6522510 (Nature Communications, 2019).

Read-outs that look alike come from different tables or passages of the source.

As to `C[C@]12C=CC(=O)C=C1CC[C@@H]1[C@@H]2[C@@H](O)C[C@@]2(C)[C@H]1CC[C@]2(O)C(=O)COP(=O)(O)O` [SJ000555709-1, PREDNISOLONE SODIUM PHOSPHATE], in the assay on CHRF288-11, the CHRF288-11 %inh amounted to 1.976%. In the assay on CMK, the CMK %inh is given as 1.948%. Also, in the assay with CMS, the CMS %inh turned out to be 9.04%. Further, in the assay with M07e, the M07e %inh is reported as -1.037%. Moreover, in the assay on ML-2, the ML-2 %inh is given as -0.8263%. Besides, the MOLM-13 %inh in the assay on MOLM-13 is 2.036%. Further, the MV4-11 %inh in the assay with MV4-11 came out at 1.456%. Moreover, the U937 %inh in the assay on U937 amounted to 2.195%.
`CNC(=O)c1cccc(C#Cc2cncnc2Nc2ccc(OCc3cccc(F)c3)c(Cl)c2)c1` [SJ000573135-1, U17545/42/1]: the CHRF288-11 %inh with CHRF288-11 is recorded as -0.4909%. For the same compound, in the assay on CMK, the CMK %inh amounted to 2.154%. Moreover, the CMS %inh in the assay with CMS came to 2.176%. For the same compound, the M07e %inh with M07e was found to be 2.556%. In the assay with ML-2, the ML-2 %inh was determined as 1.577%. Moreover, the MOLM-13 %inh in the assay on MOLM-13 came to 2.058%. The MV4-11 %inh in the assay with MV4-11 came out at 0.5885%. The U937 %inh in the assay with U937 is given as 0.8403%.
On to `c1cc(-c2cnn3nc(N4CCOCC4)ccc23)nc(NC2CC2)n1` [SJ000573092-1, U17157/98/7], for which, in the assay with CHRF288-11, the CHRF288-11 %inh is -0.2849%. In addition, the CMK %inh with CMK is -4.251%. Moreover, in the assay on CMS, the CMS %inh is reported as -2.802%. In the assay with M07e, the M07e %inh stood at 1.021%. Also, the ML-2 %inh in the assay on ML-2 came to 1.098%. The MOLM-13 %inh in the assay on MOLM-13 is given as 12.47%. Further, in the assay with MV4-11, the MV4-11 %inh is on record as 16.51%. In the assay with U937, the U937 %inh was 4.896%.
For `CCCN1CCC=C(c2ccc(Nc3nc(Nc4ccccc4C(N)=O)c4cc[nH]c4n3)c(C)c2)C1` [SJ000573273-1, U22972/6/1], the CHRF288-11 %inh in the assay with CHRF288-11 was determined as 54.2%. For the same compound, the CMK %inh in the assay on CMK was 24.28%. The CMS %inh in the assay on CMS is 2.734%. Moreover, the M07e %inh in the assay on M07e stood at 19.9%. Besides, in the assay with ML-2, the ML-2 %inh was found to be 20.08%. Besides, the MOLM-13 %inh with MOLM-13 is given as 49.41%. In addition, the MV4-11 %inh with MV4-11 is 28.66%. For the same compound, the U937 %inh in the assay with U937 amounted to 14.36%.
In the case of `Cc1cc(-c2ccco2)cc(C)c1/C=C/c1cncc(-c2nn[nH]n2)c1` [SJ000573157-1, T209/165/1], the CHRF288-11 %inh with CHRF288-11 is given as 6.913%. The CMK %inh in the assay on CMK was -3.964%. Also, the CMS %inh in the assay with CMS stood at 1.933%. The M07e %inh in the assay with M07e was 4.709%. Also, in the assay on ML-2, the ML-2 %inh came to 0.8109%. Also, in the assay with MOLM-13, the MOLM-13 %inh is recorded as -1.72%. Moreover, in the assay with MV4-11, the MV4-11 %inh is recorded as -0.5767%. In addition, the U937 %inh in the assay on U937 is listed as -2.587%.
Regarding `Cn1cc(C2=C(c3cn(C)c4cc(C(N)=O)ccc34)C(=O)NC2=O)c2ccccc21` [SJ000581068-1], the CHRF288-11 %inh in the assay with CHRF288-11 is 59.82%. In addition, in the assay with CMK, the CMK %inh came out at 87.67%. For the same compound, the CMS %inh in the assay on CMS is listed as 51.9%. Besides, in the assay on M07e, the M07e %inh is 58.86%. The ML-2 %inh in the assay on ML-2 was determined as 54.4%. For the same compound, the MOLM-13 %inh with MOLM-13 came out at 63.24%. Moreover, the MV4-11 %inh with MV4-11 is recorded as 76.64%. Besides, the U937 %inh with U937 is 75.21%.
On to `COc1ccc(S(=O)(=O)N2CCN(C(=O)c3ccc(-c4ccccc4)cc3)CC2C(=O)NO)cc1` (centres unmarked) [SJ000556700-1, N-HYDROXY-1-(4-METHOXYPHENYL)SULFONYL-4-(4-BIPHENYLCARBONYL)PIPERAZINE-2-CARBOXAMIDE], for which the CHRF288-11 %inh in the assay with CHRF288-11 is 142.9%. For the same compound, the CMK %inh in the assay with CMK is given as 129.1%. Also, the CMS %inh in the assay on CMS came out at 90.96%. Also, the M07e %inh with M07e worked out at 105.4%. The ML-2 %inh in the assay on ML-2 was 62.36%. Moreover, the MOLM-13 %inh with MOLM-13 is reported as 33.07%. Also, the MV4-11 %inh in the assay with MV4-11 is 72.89%. In the assay on U937, the U937 %inh came out at 72.9%.
Consider `Fc1ccc(-c2cc(-c3c[nH]nc3-c3ccccn3)ccn2)cc1` [SJ000573276-1, FCJB/213/107/1], for which the CHRF288-11 %inh in the assay on CHRF288-11 is listed as -1.896%. For the same compound, the CMK %inh with CMK is given as 15.4%. The CMS %inh in the assay with CMS was -1.917%. Besides, the M07e %inh in the assay with M07e is reported as -1.13%. Further, in the assay with ML-2, the ML-2 %inh is 4.336%. For the same compound, the MOLM-13 %inh in the assay with MOLM-13 came to 10.74%. Besides, the MV4-11 %inh with MV4-11 worked out at 1.718%. For the same compound, the U937 %inh with U937 came out at 16.91%.
For `CN1C(C(=O)Nc2ccccn2)=C(O)c2ccccc2S1(=O)=O` [SJ000285539-7, PIROXICAM], the CHRF288-11 %inh with CHRF288-11 (CHRF288-11 %inh, 10 µM) is given as -2.388%. In addition, the CMK %inh in the assay on CMK (CMK %inh, 10 µM) is recorded as -2.958%. Besides, the CMS %inh with CMS (CMS %inh, 10 µM) is on record as -2.071%. Besides, in the assay with M07e (M07e %inh, 10 µM), the M07e %inh is listed as -0.7405%. Further, the ML-2 %inh in the assay on ML-2 (ML-2 %inh, 10 µM) is reported as 0.4088%. For the same compound, in the assay on MOLM-13 (MOLM-13 %inh, 10 µM), the MOLM-13 %inh is -0.4149%. For the same compound, in the assay on MV4-11 (MV4-11 %inh, 10 µM), the MV4-11 %inh is reported as -0.5288%. In the assay with U937 (U937 %inh, 10 µM), the U937 %inh is given as 1.434%.
Turning to `Nc1c(C(=O)c2cccc(C(O)CO)c2)cnn1-c1ccc(F)cc1` (centres unmarked) [SJ000581110-1], the CHRF288-11 %inh in the assay on CHRF288-11 is listed as 9.958%. The CMK %inh in the assay on CMK is reported as -1.427%. Moreover, in the assay on CMS, the CMS %inh came to 3.504%. In the assay with M07e, the M07e %inh is on record as 7.822%. For the same compound, the ML-2 %inh in the assay with ML-2 was determined as 2.206%. For the same compound, in the assay on MOLM-13, the MOLM-13 %inh turned out to be 27.67%. Also, the MV4-11 %inh with MV4-11 turned out to be 3.101%. For the same compound, the U937 %inh in the assay on U937 is -0.488%.
`Cc1c[nH]c(/C=C2\C(=O)Nc3ccccc32)c1CCC(=O)O` [SJ000773151-1, SU 5402 |]: the CHRF288-11 %inh in the assay on CHRF288-11 is on record as 8.965%. In the assay on CMK, the CMK %inh turned out to be 3.453%. Moreover, in the assay with CMS, the CMS %inh turned out to be 2.629%. For the same compound, the M07e %inh with M07e was 7.079%. Moreover, the ML-2 %inh in the assay on ML-2 is given as -0.6671%. Besides, the MOLM-13 %inh with MOLM-13 is listed as 64.04%. Also, the MV4-11 %inh with MV4-11 came out at 45.76%. Also, the U937 %inh in the assay with U937 is -1.966%.
For `O=C1NC(=Nc2ccccc2)S/C1=C\c1ccc2ncccc2c1` [SJ000580960-1], in the assay with CHRF288-11, the CHRF288-11 %inh is -1.26%. Further, the CMK %inh in the assay on CMK is listed as 5.474%. Besides, the CMS %inh with CMS is -0.1285%. In the assay with M07e, the M07e %inh is listed as -2.396%. The ML-2 %inh in the assay with ML-2 came to 0.4587%. Also, in the assay on MOLM-13, the MOLM-13 %inh came out at 1.819%. Further, in the assay with MV4-11, the MV4-11 %inh came out at 2.663%. In the assay on U937, the U937 %inh is listed as 2.19%.
As for `COc1cc(F)c(F)cc1C(=O)c1cnc(NC2CCN(S(C)(=O)=O)CC2)nc1N` [SJ000581030-1], the CHRF288-11 %inh with CHRF288-11 is listed as 9.313%. Moreover, in the assay with CMK, the CMK %inh is given as 33.04%. In addition, the CMS %inh with CMS is 6.337%. Also, the M07e %inh with M07e came to 10.16%. Moreover, in the assay with ML-2, the ML-2 %inh amounted to 12.87%. Besides, in the assay on MOLM-13, the MOLM-13 %inh is 17.32%. The MV4-11 %inh in the assay on MV4-11 is recorded as 13.02%. Further, in the assay on U937, the U937 %inh stood at 15.86%.
As for `CC(=O)OCC(=O)[C@@]12OC(C)(C)O[C@@H]1C[C@H]1[C@@H]3C[C@H](F)C4=CC(=O)C=C[C@]4(C)[C@@]3(F)[C@@H](O)C[C@@]12C` [SJ000285768-4, FLUOCINONIDE], the CHRF288-11 %inh in the assay on CHRF288-11 worked out at 0.7625%. In the assay on CMK, the CMK %inh was 3.895%. In the assay on CMS, the CMS %inh is reported as 8.496%. Moreover, the M07e %inh in the assay on M07e was 4.323%. Also, in the assay with ML-2, the ML-2 %inh is on record as 0.7594%. Also, the MOLM-13 %inh with MOLM-13 turned out to be 6.203%. Further, the MV4-11 %inh in the assay with MV4-11 stood at 1.473%. Moreover, the U937 %inh with U937 is reported as 4.65%.
On to `COc1cc2ncn(-c3cc(OCc4ccccc4S(C)(=O)=O)c(C#N)s3)c2cc1OC` [SJ000573295-1, U24235/171/40 | IKK-3 INHIBITOR IX | CAY10576], for which the CHRF288-11 %inh with CHRF288-11 came to 3.431%. For the same compound, the CMK %inh in the assay on CMK was -4.233%. The CMS %inh with CMS is recorded as -0.09194%. Moreover, the M07e %inh in the assay on M07e came out at 3.197%. For the same compound, the ML-2 %inh in the assay with ML-2 was 2.593%. The MOLM-13 %inh in the assay with MOLM-13 is on record as -1.258%. Besides, the MV4-11 %inh in the assay with MV4-11 is given as 0.8968%. Further, the U937 %inh with U937 was 1.496%.
Consider `Nc1c(C(=O)c2cccc(CCS(N)(=O)=O)c2)cnn1-c1ccc(F)cc1` [SJ000581104-1], for which the CHRF288-11 %inh with CHRF288-11 is -1.775%. Moreover, in the assay on CMK, the CMK %inh worked out at 1.701%. For the same compound, in the assay with CMS, the CMS %inh came out at 3.265%. In the assay with M07e, the M07e %inh came to 6.935%. The ML-2 %inh with ML-2 is 1.884%. Besides, the MOLM-13 %inh with MOLM-13 is -0.2243%. The MV4-11 %inh with MV4-11 was 1.774%. Besides, the U937 %inh in the assay on U937 worked out at 0.2995%.
